Values quoted from earlier work in patent US20160166510A1, “STABILIZED PROLONGED RELEASE PHARMACEUTICAL COMPOSITION COMPRISING ATYPICAL ANTIPSYCHOTIC” (INVENTIA HEALTHCARE PRIVATE LIMITED, priority 2010, published 2016).
Where two headings read alike, the source gives them in different places.

- Solubility (in 0.1 N HCl): sparingly soluble
- Solubility (in methylene chloride): sparingly soluble
- Solubility (in water): practically insoluble
SMILES: Cc1nc2n(c(=O)c1CCN1CCC(c3noc4cc(F)ccc34)CC1)CCCC2O (stereo not drawn) [Paliperidone]
